Data reported in PubChem BioAssay (NCI).
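The concentration for 50% growth inhibition is given as GI50. Definition used: TGI = concentration required for complete inhibition of growth.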

How the values were obtained:
Assay in all cases: NCI tumour cell line growth inhibition, 384-well format
U251 glioblastoma = system: U251 glioblastoma
OVCAR-4 ovarian = system: OVCAR-4 ovarian
SF-268 CNS = system: SF-268 CNS
NCI-H460 NSCLC = system: NCI-H460 NSCLC
TK-10 renal = system: TK-10 renal
HS 578T breast = system: HS 578T breast
HOP-92 NSCLC = system: HOP-92 NSCLC
SNB-75 CNS = system: SNB-75 CNS
NCI-H226 lung = system: NCI-H226 lung
MALME-3M melanoma = system: MALME-3M melanoma
HCT-15 colon = system: HCT-15 colon
DU-145 prostate = system: DU-145 prostate
K-562 leukemia = system: K-562 leukemia
HOP-62 NSCLC = system: HOP-62 NSCLC
HL-60(TB) leukemia = system: HL-60(TB) leukemia
HT29 colon = system: HT29 colon
COLO 205 colon = system: COLO 205 colon
HCT-116 colon = system: HCT-116 colon
CCRF-CEM leukemia = system: CCRF-CEM leukemia
PC-3 prostate = system: PC-3 prostate
IGROV1 ovarian = system: IGROV1 ovarian
MDA-MB-468 breast = system: MDA-MB-468 breast
RXF 393 renal = system: RXF 393 renal
CAKI-1 renal = system: CAKI-1 renal
A549 NSCLC = system: A549 NSCLC
SW-620 colon = system: SW-620 colon
RPMI-8226 leukemia = system: RPMI-8226 leukemia
NCI-H522 lung = system: NCI-H522 lung
MDA-MB-435 melanoma = system: MDA-MB-435 melanoma
T-47D breast = system: T-47D breast
786-0 renal = system: 786-0 renal
MDA-MB-231 breast = system: MDA-MB-231 breast
HCC-2998 colon = system: HCC-2998 colon
UACC-62 melanoma = system: UACC-62 melanoma
M14 melanoma = system: M14 melanoma
OVCAR-8 ovarian = system: OVCAR-8 ovarian
EKVX NSCLC = system: EKVX NSCLC
ACHN renal = system: ACHN renal
A498 renal = system: A498 renal
UACC-257 melanoma = system: UACC-257 melanoma
NCI-H322M lung = system: NCI-H322M lung
NCI/ADR-RES ovarian = system: NCI/ADR-RES ovarian
SK-OV-3 ovarian = system: SK-OV-3 ovarian
MCF7 breast = system: MCF7 breast
UO-31 renal = system: UO-31 renal
NCI-H23 lung = system: NCI-H23 lung
SK-MEL-5 melanoma = system: SK-MEL-5 melanoma
LOX IMVI melanoma = system: LOX IMVI melanoma
SF-539 CNS = system: SF-539 CNS
KM12 colon = system: KM12 colon
SR leukemia = system: SR leukemia
SK-MEL-28 melanoma = system: SK-MEL-28 melanoma
SNB-19 CNS = system: SNB-19 CNS
MOLT-4 leukemia = system: MOLT-4 leukemia
OVCAR-3 ovarian = system: OVCAR-3 ovarian
SN12C renal = system: SN12C renal
SF-295 CNS = system: SF-295 CNS
BT-549 breast = system: BT-549 breast

Cc1nc(-c2cn3c(n2)-c2ccc(-c4cnn(C(C)(C)C(N)=O)c4)cc2OCC3)n(C(C)C)n1
GI50 (U251 glioblastoma): 3.56 µM
TGI (U251 glioblastoma): > 100 µM
GI50 (OVCAR-4 ovarian): 15.2 µM
TGI (OVCAR-4 ovarian): 93.7 µM
GI50 (SF-268 CNS): 3.31 µM
TGI (SF-268 CNS): 29.5 µM
GI50 (NCI-H460 NSCLC): 0.134 µM
TGI (NCI-H460 NSCLC): 11.4 µM
GI50 (TK-10 renal): 0.387 µM
TGI (TK-10 renal): 19.2 µM
GI50 (HS 578T breast): 0.567 µM
TGI (HS 578T breast): 12.5 µM
GI50 (HOP-92 NSCLC): 0.226 µM
TGI (HOP-92 NSCLC): 29.9 µM
GI50 (SNB-75 CNS): 0.221 µM
TGI (SNB-75 CNS): 15.3 µM
GI50 (NCI-H226 lung): 2.82 µM
TGI (NCI-H226 lung): 41 µM
GI50 (MALME-3M melanoma): 0.164 µM
TGI (MALME-3M melanoma): 4.21 µM
GI50 (HCT-15 colon): 1.59 µM
TGI (HCT-15 colon): 23.6 µM
GI50 (DU-145 prostate): 2.16 µM
TGI (DU-145 prostate): 17.8 µM
GI50 (K-562 leukemia): 12.9 µM
TGI (K-562 leukemia): 84.8 µM
GI50 (HOP-62 NSCLC): 5.99 µM
TGI (HOP-62 NSCLC): 91.3 µM
GI50 (HL-60(TB) leukemia): < 0.01 µM
TGI (HL-60(TB) leukemia): 0.115 µM
GI50 (HT29 colon): 0.085 µM
TGI (HT29 colon): 16.6 µM
GI50 (COLO 205 colon): 0.396 µM
TGI (COLO 205 colon): 25.4 µM
GI50 (HCT-116 colon): 1.92 µM
TGI (HCT-116 colon): 18.3 µM
GI50 (CCRF-CEM leukemia): 0.343 µM
TGI (CCRF-CEM leukemia): 13.7 µM
GI50 (PC-3 prostate): 0.396 µM
TGI (PC-3 prostate): 12.2 µM
GI50 (IGROV1 ovarian): 0.0125 µM
TGI (IGROV1 ovarian): 0.0541 µM
GI50 (MDA-MB-468 breast): 0.147 µM
TGI (MDA-MB-468 breast): 1.34 µM
GI50 (RXF 393 renal): 1.99 µM
TGI (RXF 393 renal): 11.3 µM
GI50 (CAKI-1 renal): 0.342 µM
TGI (CAKI-1 renal): 31.8 µM
GI50 (A549 NSCLC): 1.43 µM
TGI (A549 NSCLC): 14.7 µM
GI50 (SW-620 colon): 12.5 µM
TGI (SW-620 colon): > 100 µM
GI50 (RPMI-8226 leukemia): 3.21 µM
TGI (RPMI-8226 leukemia): 13.3 µM
GI50 (NCI-H522 lung): 3.56 µM
TGI (NCI-H522 lung): 27.3 µM
GI50 (MDA-MB-435 melanoma): 6.33 µM
TGI (MDA-MB-435 melanoma): 53.2 µM
GI50 (T-47D breast): < 0.01 µM
TGI (T-47D breast): 0.0399 µM
GI50 ([…]-0 renal): 2.6 µM
TGI (786-0 renal): 87.3 µM
GI50 (MDA-MB-231 breast): 5.79 µM
TGI (MDA-MB-231 breast): > 100 µM
GI50 (HCC-2998 colon): 0.831 µM
TGI (HCC-2998 colon): 14 µM
GI50 (UACC-62 melanoma): 0.71 µM
TGI (UACC-62 melanoma): 7.5 µM
GI50 (M14 melanoma): 7.41 µM
TGI (M14 melanoma): 32.1 µM
GI50 (OVCAR-8 ovarian): 3.01 µM
TGI (OVCAR-8 ovarian): 84 µM
GI50 (EKVX NSCLC): 0.756 µM
TGI (EKVX NSCLC): 15.4 µM
GI50 (ACHN renal): 1.36 µM
TGI (ACHN renal): > 100 µM
GI50 (A498 renal): 1.96 µM
TGI (A498 renal): 12.4 µM
GI50 (UACC-257 melanoma): 7.34 µM
TGI (UACC-257 melanoma): 40.7 µM
GI50 (NCI-H322M lung): 0.312 µM
TGI (NCI-H322M lung): 14.2 µM
GI50 (NCI/ADR-RES ovarian): 13.2 µM
TGI (NCI/ADR-RES ovarian): 52.7 µM
GI50 (SK-OV-3 ovarian): 0.0291 µM
TGI (SK-OV-3 ovarian): 1.95 µM
GI50 (MCF7 breast): 0.0152 µM
TGI (MCF7 breast): 15.1 µM
GI50 (UO-31 renal): 0.848 µM
TGI (UO-31 renal): > 100 µM
GI50 (NCI-H23 lung): 11.3 µM
TGI (NCI-H23 lung): 50.5 µM
GI50 (SK-MEL-5 melanoma): 1.26 µM
TGI (SK-MEL-5 melanoma): 9.2 µM
GI50 (LOX IMVI melanoma): 1.99 µM
TGI (LOX IMVI melanoma): 15.4 µM
GI50 (SF-539 CNS): 1.09 µM
TGI (SF-539 CNS): 20.2 µM
GI50 (KM12 colon): 3.72 µM
TGI (KM12 colon): 17 µM
GI50 (SR leukemia): 0.785 µM
TGI (SR leukemia): 2.53 µM
GI50 (SK-MEL-28 melanoma): 0.484 µM
TGI (SK-MEL-28 melanoma): > 100 µM
GI50 (SNB-19 CNS): 13.8 µM
TGI (SNB-19 CNS): > 100 µM
GI50 (MOLT-4 leukemia): 0.0746 µM
TGI (MOLT-4 leukemia): 1.12 µM
GI50 (OVCAR-3 ovarian): 0.398 µM
TGI (OVCAR-3 ovarian): 9.21 µM
GI50 (SN12C renal): 0.27 µM
TGI (SN12C renal): > 100 µM
GI50 (SF-295 CNS): 0.95 µM
TGI (SF-295 CNS): 9 µM
GI50 (BT-549 breast): 1.67 µM
TGI (BT-549 breast): 19.9 µM
